Measured values taken from ChEMBL document CHEMBL3885881, “DrugMatrix”.

Species: Rattus norvegicus
Assay: DrugMatrix - Regimen: Daily Repeat
Assay type: toxicity, organism-based, Sprague-Dawley
Set-up: regimen Daily Repeat, gender Male, age 6-8 weeks
Details: in vivo, po, route oral GAVAGE, vehicle 100 % WATER; for ABSOLUTE BASOPHIL / ABSOLUTE EOSINOPHIL / ABSOLUTE LYMPHOCYTE / ABSOLUTE MONOCYTE / ABSOLUTE SEGMENTED NEUTROPHIL / BASOPHIL / EOSINOPHIL / ERYTHROCYTE COUNT / HEMATOCRIT / HEMOGLOBIN / LEUKOCYTE COUNT / LYMPHOCYTE / MEAN CORPUSCULAR HEMOGLOBIN / MEAN CORPUSCULAR HEMOGLOBIN CONCENTRATION / MEAN CORPUSCULAR VOLUME / MONOCYTE / NEUTROPHIL / NUCLEATED RED BLOOD CELLS / PLATELET COUNT: tissue Blood; for ALANINE AMINOTRANSFERASE / ALBUMIN / ALKALINE PHOSPHATASE / ASPARTATE AMINOTRANSFERASE / BLOOD UREA NITROGEN / CARBON DIOXIDE / CHLORIDE / CHOLESTEROL / CREATINE PHOSPHOKINASE / CREATININE / GLUCOSE / LACTATE DEHYDROGENASE / LIPASE / PHOSPHORUS / POTASSIUM / SODIUM / TOTAL BILIRUBIN / TOTAL PROTEIN / URIC ACID: tissue Plasma
[1] = 0 mg/kg, 72 h, dose level Control, time 3 day
[2] = 0 mg/kg, 120 h, dose level Control, time 5 day
[3] = 15 mg/kg, 72 h, dose level Low, time 3 day

## NNC(=O)c1ccncc1 [ISONIAZID]
[1]
  ABSOLUTE BASOPHIL: 0 CELLS/uL
  ABSOLUTE EOSINOPHIL: 46 CELLS/uL
  ABSOLUTE LYMPHOCYTE: 10225.67 CELLS/uL
  ABSOLUTE MONOCYTE: 319.33 CELLS/uL
  ABSOLUTE SEGMENTED NEUTROPHIL: 1242.33 CELLS/uL
  BASOPHIL: 0%
  EOSINOPHIL: 0.33%
  ERYTHROCYTE COUNT: 5.17 x10E6/uL
  HEMATOCRIT: 33.43%
  HEMOGLOBIN: 12.55 G/DL
  LEUKOCYTE COUNT: 11.83 x10E3/uL
  LYMPHOCYTE: 86.5%
  MEAN CORPUSCULAR HEMOGLOBIN: 24.35 pg
  MEAN CORPUSCULAR HEMOGLOBIN CONCENTRATION: 37.57 G/DL
  MEAN CORPUSCULAR VOLUME: 64.8 fL
  MONOCYTE: 2.67%
  NEUTROPHIL: 10.5%
  NUCLEATED RED BLOOD CELLS: 0.17 /100WBC
  PLATELET COUNT: 1026.17 x10E3/uL
  ALANINE AMINOTRANSFERASE: 52.67 u/L
  ALBUMIN: 4.17 G/DL
  ALKALINE PHOSPHATASE: 331 u/L
  ASPARTATE AMINOTRANSFERASE: 92.33 u/L
  BLOOD UREA NITROGEN: 15.33 mg/dL
  CARBON DIOXIDE: 26.17 mmol/L
  CHLORIDE: 103.17 MEQ/L
  CHOLESTEROL: 73.67 mg/dL
  CREATINE PHOSPHOKINASE: 472.83 u/L
  CREATININE: 0.29 mg/dL
  GLUCOSE: 178.5 mg/dL
  LACTATE DEHYDROGENASE: 244.83 u/L
  LIPASE: 10.67 u/L
  PHOSPHORUS: 12.45 mg/dL
  POTASSIUM: 6.35 MEQ/L
  SODIUM: 144.27 MEQ/L
  TOTAL BILIRUBIN: 0.13 mg/dL
  TOTAL PROTEIN: 5.77 G/DL
  URIC ACID: 2.08 mg/dL
[2]
  ABSOLUTE BASOPHIL: 0 CELLS/uL
  ABSOLUTE EOSINOPHIL: 23.5 CELLS/uL
  ABSOLUTE LYMPHOCYTE: 12797.33 CELLS/uL
  ABSOLUTE MONOCYTE: 465.5 CELLS/uL
  ABSOLUTE SEGMENTED NEUTROPHIL: 1313.67 CELLS/uL
  BASOPHIL: 0%
  EOSINOPHIL: 0.17%
  ERYTHROCYTE COUNT: 5.76 x10E6/uL
  HEMATOCRIT: 36.72%
  HEMOGLOBIN: 13.72 G/DL
  LEUKOCYTE COUNT: 14.6 x10E3/uL
  LYMPHOCYTE: 87.5%
  MEAN CORPUSCULAR HEMOGLOBIN: 23.8 pg
  MEAN CORPUSCULAR HEMOGLOBIN CONCENTRATION: 37.35 G/DL
  MEAN CORPUSCULAR VOLUME: 63.72 fL
  MONOCYTE: 3.17%
  NEUTROPHIL: 9.17%
  NUCLEATED RED BLOOD CELLS: 0.33 /100WBC
  PLATELET COUNT: 1270.67 x10E3/uL
  ALANINE AMINOTRANSFERASE: 50.5 u/L
  ALBUMIN: 4.32 G/DL
  ALKALINE PHOSPHATASE: 339.67 u/L
  ASPARTATE AMINOTRANSFERASE: 88 u/L
  BLOOD UREA NITROGEN: 17 mg/dL
  CARBON DIOXIDE: 25 mmol/L
  CHLORIDE: 103.83 MEQ/L
  CHOLESTEROL: 71.33 mg/dL
  CREATINE PHOSPHOKINASE: 281.83 u/L
  CREATININE: 0.26 mg/dL
  GLUCOSE: 161.67 mg/dL
  LACTATE DEHYDROGENASE: 191.17 u/L
  LIPASE: 10.17 u/L
  PHOSPHORUS: 11.72 mg/dL
  POTASSIUM: 6.76 MEQ/L
  SODIUM: 145.17 MEQ/L
  TOTAL BILIRUBIN: 0.2 mg/dL
  TOTAL PROTEIN: 6.15 G/DL
  URIC ACID: 2 mg/dL
[3]
  ABSOLUTE BASOPHIL: 0 CELLS/uL
  ABSOLUTE EOSINOPHIL: 0 CELLS/uL
  ABSOLUTE LYMPHOCYTE: 12954 CELLS/uL
  ABSOLUTE MONOCYTE: 520 CELLS/uL
  ABSOLUTE SEGMENTED NEUTROPHIL: 1492.67 CELLS/uL
  BASOPHIL: 0%
  EOSINOPHIL: 0%
  ERYTHROCYTE COUNT: 5.66 x10E6/uL
  HEMATOCRIT: 34.97%
  HEMOGLOBIN: 13.17 G/DL
  LEUKOCYTE COUNT: 14.97 x10E3/uL
  LYMPHOCYTE: 86.33%
  MEAN CORPUSCULAR HEMOGLOBIN: 23.27 pg
  MEAN CORPUSCULAR HEMOGLOBIN CONCENTRATION: 37.67 G/DL
  MEAN CORPUSCULAR VOLUME: 61.73 fL
  MONOCYTE: 3.67%
  NEUTROPHIL: 10%
  NUCLEATED RED BLOOD CELLS: 0 /100WBC
  PLATELET COUNT: 1157.33 x10E3/uL
  ALANINE AMINOTRANSFERASE: 52.67 u/L
  ALBUMIN: 4.23 G/DL
  ALKALINE PHOSPHATASE: 369.67 u/L
  ASPARTATE AMINOTRANSFERASE: 95.67 u/L
  BLOOD UREA NITROGEN: 14.33 mg/dL
  CARBON DIOXIDE: 26 mmol/L
  CHLORIDE: 102.33 MEQ/L
  CHOLESTEROL: 93.67 mg/dL
  CREATINE PHOSPHOKINASE: 235.67 u/L
  CREATININE: 0.28 mg/dL
  GLUCOSE: 155 mg/dL
  LACTATE DEHYDROGENASE: 140.33 u/L
  LIPASE: 12 u/L
  PHOSPHORUS: 12.77 mg/dL
  POTASSIUM: 6.52 MEQ/L
  SODIUM: 144.23 MEQ/L
  TOTAL BILIRUBIN: 0.2 mg/dL
  TOTAL PROTEIN: 5.83 G/DL
  URIC ACID: 1.4 mg/dL
